The text below walks through data of patent publication US20160168185A1 (BAYLOR COLLEGE OF MEDICINE, priority 2013, published 2016).

The structures appear in SMILES notation. pIC50: −log10 of the molar value. Read-outs that look alike come from different tables or passages of the source. Some results are limits rather than exact numbers.

Series [1] has as its system claudin-1, -3, E-cadherin, Snail1, Zeb1, Zeb2 expression in MDA-MB231. Kind of series: qPCR of cell-cell adhesion and EMT gene expression in MDA-MB231. It counts as cell-based. The text has this: Fourth, qPCR was used to find if treatment with SYC-522 affects gene expression of cell-cell adhesion and EMT genes. […].
(In general: Real-time PCR tracks product formation cycle by cycle.)

A further series relates to MDA-MB231. Kind of series: Apoptosis of MDA-MB231, FACS with Annexin-V assay. The conditions noted are these: 10-day treatment.
Series [2] is described as follows: Human liver microsome stability assay. It counts as in vitro ADME. Background: Liver microsomes are vesicles of endoplasmic reticulum, rich in cytochrome P450 enzymes.
The test system of series [3] is H3K79 methylation in MV4-11 cells. As to the kind of experiment: cells. Particulars: Homo sapiens, MV4-11, 96 h, read-out: IC50 of H3K79 methylation inhibition.
The nature of series [4]: Human plasma stability assay. It counts as in vitro ADME. As for the experimental part:
For human plasma stability assay, to human plasma (500 μL) was added a test compound to a final concentration of 5 μM and incubated at 37° C. at approximately 60 rpm on an orbital shaker. Aliquots of 50 μL were taken from the reaction solution at 0, 15, 30, 45 and 60 minutes. The reaction was stopped by the addition of 6 volumes of cold acetonitrile. Samples were centrifuged at 20,000 g for 15 minutes to precipitate protein. An aliquot of 150 μL of the supernatant was used to determine the remaining amount of the test compound, using the same LC/MS/MS method described above. All experiments were performed in duplicate.

In series [5] the test system is histone methyltransferases CARM1, PRMT1 and SUV39H1.
Another series has as its system panel of other HMTs. Kind of series: Activity against a panel of other HMTs.
In series [6] the test system is MV4-11 MLL leukemia mouse model. The conditions noted are these: cited from earlier work.
The conditions of series [7]: continuous infusion, subcutaneously implanted osmotic pump; cited from earlier work.

For `CC(C)N(CCCNC(=O)Nc1ccc(C(C)(C)C)cc1)C[C@H]1O[C@@H](n2cnc3c(N)ncnc32)[C@H](O)[C@@H]1O` [SYC-522], in [1], the “Zeb1 and Zeb2 expression” value is listed as “unchanged or slightly increased”; the “expression of Snail1” value is “large decreased expression”. For the same compound, the “increase of the expression of claudin-1, -3 and E-cadherin” value in [1] (dose-dependent) was no more than 3.9 fold. In the series with MDA-MB231 (2 μM), the “apoptosis of MDA-MB231 at 2 μM” value is “negligible apoptosis”. Further, the “apoptosis of MDA-MB231 at 10 μM” value in the series on MDA-MB231 (10 μM) is recorded as 18.4%. In [2], the “metabolic stability in human liver microsomes in words” value is listed as “quickly degraded”.

For `CC(C)N(CCCNC(=O)Nc1ccc(C(C)(C)C)cc1)CC1=C[C@@H](n2cnc3c(N)ncnc32)[C@H](O)[C@@H]1O` [compound of Formula VII, 1-(3-((((3R,4S,5R)-3-adenosyl-4,5-dihydroxycyclopent-1-en-1-yl)methyl)-(isopropyl)amino)propyl)-3-(4-(tert-butyl)phenyl)urea], the pIC50 in series [3] was roughly 6.70. In [4], the “stability in human plasma in words” value was “stable”. In addition, in series [5], the “activity against CARM1, PRMT1 and SUV39H1 (other HMTs) in words” value is on record as “no activity”.

`CNc1ncnc2c1ncn2[C@@H]1O[C@H](CSCC[C@H](N)C(=O)O)[C@@H](O)[C@H]1O` [compound 24, N6-methyl-SAH]: the “activity against a panel of other HMTs in words” value in the series with panel of other HMTs is “inactive”.

As to `Nc1ncnc2c1ncn2[C@@H]1O[C@H](CSCC[C@H](N)C(=O)O)[C@@H](O)[C@H]1O` [SAH, S-(5′-adenosyl)-L-homocysteine, reference compound], the “activity against CARM1, PRMT1 and SUV39H1 (other HMTs) in words” value in series [5] is reported as “broad activity”.

Consider `CC(C)N(CCCNC(=O)Nc1ccc(C(C)(C)C)cc1)C[C@H]1O[C@@H](n2ccc3c(N)ncnc32)[C@H](O)[C@@H]1O` [EPZ004777], for which the “in vivo efficacy in MLL leukemia mouse model in words” value in series [6] is listed as “weak in vivo activity”; in series [6] (listed as Compound 1), “relatively weak in vivo efficacy”. The “stable plasma drug concentration” value in [7] was roughly 0.5 µM.

The pIC50 is −log10 of the IC50, conventionally taken in molar units.
